# “And” between values parts separate entries of the source, which are not always exact repeats. Equal entries are not always repeated. Where two headings read alike, the source gives them in different places.
# What was measured:
# [1] = Fluorescence intensity of selenide 1 and phenol 5; assay type: physicochemical; conditions: pH 7
# Protocol: All fluorescence measurements (excitation 490 nm, emission 510-570 nm) were carried out using a Promega Biosystems Modulus II Microplate Reader or a HoribaMax Fluorometer unless otherwise stated. Data analysis was performed using GraphPad Prism 8.
# The fluorescence intensity of selenide 1 and phenol 5 were investigated. Solutions containing ultrapure water (681 μL), […] phosphate pH 7 buffer (31 μL), DMSO (28.1 μL), and 80 μM 1 or phenol 5 in DMSO (9.4 μL) were made. Aliquots of these solutions (200 μL) were transferred to the wells of a black 96-well plate and the fluorescence was measured. As evident from FIG. 10 and Table 1, the difference in fluorescence intensity of probe 1 and phenol 5, is 27-fold. Generally, O-alkylation of Pittsburgh Green suppresses the fluorescence by 200-400 fold. The somewhat modest fluorescence increase in the current system is attributed to the trace contamination of the fluorescent compound 5 during the purification of the nonfluorescent probe 1.
# [2] = 100 nM in water
# Protocol: The pH dependence of phenol 5 was also investigated. Phenol 5 was dissolved in water to a concentration of 100 nM. This solution (100 mL) was titrated with HCl and NaOH. The pH was measured after each addition before measuring the fluorescence using a Horiba FluoroMax3 fluorescence spectrometer. Fluorescence was measured using 1 nm slit widths with an excitation wavelength of 496 nm and an emission wavelength of 510 nm, the results of which are shown in FIG. 23 and Table 15.
# RAW cells = experiment: Imaging of endogenous H2O2 upon ionomycin stimulation in RAW cells; assay type: cell-based; conditions: 5 μM probe
# Source text: After detecting exogenously added H2O2 in cells, the focus shifted to more biologically relevant, endogenous H2O2. It was attempted to monitor endogenous H2O2 production upon stimulation with ionomycin in RAW cells. […] In contrast, with probe 1, a significant response was observed within 30 s after the addition of ionomycin relative to the baseline fluorescence (FIG. 24B-C) and peaked at 48 s.
smiles,measurement,setting,value
O=c1ccc2c(-c3ccccc3CO)c3ccc(O)cc3oc-2c1 [Compound 5],Fluorescence Intensity,[1],"244,687 and 247,204 and 246,848"
same,Fluorescence Intensity,[2]; pH 3.99,920
same,Fluorescence Intensity,[2]; pH 4.20,930
same,Fluorescence Intensity,[2]; pH 4.33,"1,070"
same,Fluorescence Intensity,[2]; pH 4.48,"1,450"
same,Fluorescence Intensity,[2]; pH 4.65,"1,440"
same,Fluorescence Intensity,[2]; pH 4.77,"1,670"
same,Fluorescence Intensity,[2]; pH 5.07,"2,790"
same,Fluorescence Intensity,[2]; pH 5.51,"5,280"
same,Fluorescence Intensity,[2]; pH 5.69,"7,130"
same,Fluorescence Intensity,[2]; pH 5.90,"10,250"
same,Fluorescence Intensity,[2]; pH 6.30,"18,790"
same,Fluorescence Intensity,[2]; pH 6.38,"18,720"
same,Fluorescence Intensity,[2]; pH 6.48,"22,820"
same,Fluorescence Intensity,[2]; pH 6.80,"27,620"
same,Fluorescence Intensity,[2]; pH 6.90,"31,730"
same,Fluorescence Intensity,[2]; pH 7.11,"34,510"
same,Fluorescence Intensity,[2]; pH 7.18,"35,740"
same,Fluorescence Intensity,[2]; pH 7.69,"39,880"
same,Fluorescence Intensity,[2]; pH 8.31,"41,950"
same,Fluorescence Intensity,[2]; pH 8.63,"42,930"
same,Fluorescence Intensity,[2]; pH 8.88,"44,240"
same,Fluorescence Intensity,[2]; pH 9.00,"43,280"
same,Fluorescence Intensity,[2]; pH 9.09,"43,110"
same,Fluorescence Intensity,[2]; pH 9.15,"43,140"
same,Fluorescence Intensity,[2]; pH 9.32,"43,550"
same,Fluorescence Intensity,[2]; pH 9.40,"43,850"
same,Fluorescence Intensity,[2]; pH 9.49,"43,340"
same,Fluorescence Intensity,[2]; pH 9.56,"45,080"
same,Fluorescence Intensity,[2]; pH 9.61,"44,640"
same,Fluorescence Intensity,[2]; pH 9.71,"43,930"
same,Fluorescence Intensity,[2]; pH 9.75,"42,610"
same,Fluorescence Intensity,[2]; pH 9.83,"44,070"
same,Fluorescence Intensity,[2]; pH 9.92,"43,670"
same,Fluorescence Intensity,[2]; pH 10.01,"41,900"
same,Fluorescence Intensity,[2]; pH 10.10,"42,170"
same,Fluorescence Intensity,[2]; pH 10.22,"42,800"
same,Fluorescence Intensity,[2]; pH 10.33,"42,170"
same,Fluorescence Intensity,[2]; pH 10.43,"42,570"
same,Fluorescence Intensity,[2]; pH 10.48,"42,410"
same,Fluorescence Intensity,[2]; pH 10.59,"40,450"
same,Fluorescence Intensity,[2]; pH 10.68,"41,370"
same,Fluorescence Intensity,[2]; pH 10.75,"40,520"
same,Fluorescence Intensity,[2]; pH 10.85,"40,140"
same,Fluorescence Intensity,[2]; pH 10.91,"38,790"
"CC(=O)Oc1cc2c(cc1Cl)C(c1ccccc1C(=O)O)c1cc(Cl)c(OC(C)=O)cc1O2 [dihydrodichlorofluorescein acetate, reference compound]",fluorescence response upon ionomycin addition,RAW cells,fluorescence increase could hardly be observed
